Molecules are shown by their SMILES.

From patent US8933224B2, “Triazine derivatives” (Pfizer Inc., priority 2013, dated 2015) come the findings set out here.

One test has as its target rat PDE10 enzyme (Rattus norvegicus (Rat), UniProt Q9QYJ6). The experiment in a line: PDE10 scintillation proximity assay (SPA), inhibition of rat PDE10 enzyme activity. Type of test: biochemical. The settings on record: geometric mean of 2-4 determinations unless otherwise indicated (b: ≧5 determinations; c: single determination). The gist of the method:
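SPA with fixed recombinant PDE10 (Sf21-expressed, Ni-NTA and Mono Q purified) converting ~20% of 20 nM ³H-cAMP in 50 mM TRIS pH 7.5, 1.3 mM MgCl2, 0.01% Brij, across an inhibitor range.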
(In general: In a scintillation proximity assay essentially only radioactivity close to the scintillant gives light.)

Test [1] has as its target human recombinant PDE10 enzyme (PDE10A) (Homo sapiens, UniProt Q9Y233). The experiment in a line: PDE10 scintillation proximity assay (SPA), inhibition of human recombinant PDE10 enzyme activity. Type of test: biochemical. The settings on record: geometric mean of 2-4 determinations unless otherwise indicated (b: ≧5 determinations; c: single determination). How it is done:
PDE10 activity was measured using a scintillation assay (SPA-based method) similar to that previously described by Seeger, T. F. et al., Brain Research 985 (2003) 113-126. The compounds' relative activity as PDE10 inhibitors was investigated by assaying a fixed amount of enzyme in the presence of the test compound and low substrate concentration (cAMP) such that an IC50 could be determined. […] The assay is performed in a 384-well format with 50 μL assay buffer (50 mM TRIS pH 7.5; 1.3 mM MgCl2; 0.01% Brij) containing enough PDE10 to convert ˜20% of 20 nM ^3H-cAMP, and a range of inhibitors. Reactions are incubated for 30 minutes at 25° C. The addition of 20 μL of 8 mg/ml yttrium silicate SPA beads (PerkinElmer) stops the reaction. The plates are sealed (TopSeal, PerkinElmer) and the beads are allowed to settle for 8 hrs, after which they are read on the Trilux Microbeta overnight. ^1Rat enzyme preparation:^2Human enzyme preparation:
Human PDE10A coding sequence (amino acids 21 to 797 from the sequence with accession number NP_001124162.1) was synthesized using codon optimization for insect expression and cloned into the baculovirus expression vector pFastBac (Invitrogen) engineered to include a N-terminal His6 affinity tag to aid in purification as described in Seeger, T. F. et al., Brain Research 985 (2003) 113-126. The recombinant Bacmid was isolated and used to transfect sf9 insect cells to generate a viral stock. To generate cell paste for purification, sf21 cells were infected with the virus stock and cells were harvested 72 hours after infection as described in Seeger, T. F. et al., Brain Research 985 (2003) 113-126. Insect cell paste was lysed and after centrifugation, the supernatant was chromatographed on Ni-NTA agarose (Qiagen) as described in Seeger, T. F. et al., Brain Research 985 (2003) 113-126. Ni-NTA agarose eluting fractions containing PDE10A were chromatographed on Superdex 200 (GE Healthcare Life Sciences) in 50 mM Tris HCl pH 7.5, 150 mM NaCl, 1 mM EDTA, 10% glycerol, 2 mM TCEP, 1.5 mM benzamidine, EDTA-free protease inhibitors (Roche), and 5 μM E-64.

Sequence of rat PDE10 enzyme (Q9QYJ6 24-794): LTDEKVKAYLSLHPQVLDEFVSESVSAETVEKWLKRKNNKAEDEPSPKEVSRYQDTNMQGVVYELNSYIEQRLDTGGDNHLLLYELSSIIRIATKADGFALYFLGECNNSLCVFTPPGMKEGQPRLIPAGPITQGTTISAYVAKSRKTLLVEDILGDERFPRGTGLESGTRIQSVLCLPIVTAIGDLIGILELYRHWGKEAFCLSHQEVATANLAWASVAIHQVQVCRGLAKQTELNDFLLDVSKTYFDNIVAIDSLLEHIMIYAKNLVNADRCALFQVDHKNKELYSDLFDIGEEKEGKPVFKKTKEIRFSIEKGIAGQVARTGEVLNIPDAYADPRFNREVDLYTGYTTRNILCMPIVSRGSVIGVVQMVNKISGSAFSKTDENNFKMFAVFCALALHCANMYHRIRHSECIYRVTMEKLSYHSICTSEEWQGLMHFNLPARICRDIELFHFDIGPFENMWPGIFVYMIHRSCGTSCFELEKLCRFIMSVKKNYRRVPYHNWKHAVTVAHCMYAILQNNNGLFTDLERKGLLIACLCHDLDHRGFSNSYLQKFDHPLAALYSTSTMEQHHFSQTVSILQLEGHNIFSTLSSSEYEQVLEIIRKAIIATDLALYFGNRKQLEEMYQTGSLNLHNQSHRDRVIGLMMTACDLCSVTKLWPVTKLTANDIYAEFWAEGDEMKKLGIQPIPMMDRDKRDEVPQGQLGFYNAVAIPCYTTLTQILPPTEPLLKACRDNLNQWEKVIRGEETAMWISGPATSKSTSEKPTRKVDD

The term IC50 denotes the concentration at which inhibition is half-maximal. Consider `Cc1nc([C@@H]2CCOC2)c2c(N3CCc4nc(C5CC5)oc4C3)ncnn12` [Example 9, 4-(2-Cyclopropyl-6,7-dihydro[1,3]oxazolo[5,4-c]pyridin-5(4H)-yl)-7-methyl-5-[(3S)-tetrahydrofuran-3-yl]imidazo[5,1-f][1,2,4]triazine], for which the IC50 on rat PDE10 enzyme is 0.892 nM; in test [1], 1.14 nM.
As for `Cc1nc2c(s1)CN(c1ncnn3c(C)nc([C@H]4CCOC4)c13)CC2` [Example 23, 7-methyl-4-(2-methyl-6,7-dihydro[1,3]thiazolo[5,4-c]pyridin-5(4H)-yl)-5-[(3R)-tetrahydrofuran-3-yl]imidazo[5,1-f][1,2,4]triazine], the results for the IC50 (on rat PDE10 enzyme; in test [1]) were less than 5.55 nM and 2.53 nM, respectively.
Turning to `Cc1nc(-c2ccccc2F)c2c(N3CCc4nc(C5CC5)ncc4C3)ncnn12` [Example 1, 2-Cyclopropyl-6-[5-(2-fluorophenyl)-7-methylimidazo[5,1-f][1,2,4]triazin-4-yl]-5,6,7,8-tetrahydropyrido[4,3-d]pyrimidine], the IC50 amounted to 4.23 nM at rat PDE10 enzyme and 5.93 nM in test [1].
Turning to `CCOc1nc(C2CC2)nc2c1CN(c1ncnn3c(C)nc([C@@H]4CCOC4)c13)CC2` [Example 148, 2-cyclopropyl-4-ethoxy-6-{7-methyl-5-[(3S)-tetrahydrofuran-3-yl]imidazo[5,1-f][1,2,4]triazin-4-yl}-5,6,7,8-tetrahydropyrido[4,3-d]pyrimidine], the IC50 on rat PDE10 enzyme was 0.125 nM; in test [1], 0.166 nM.
On the same counts, the results for `Cc1nc(-c2ccccc2F)c2c(N3CCc4c(c(C(F)(F)F)nn4C)C3)ncnn12` [Example 118, 5-(2-fluorophenyl)-7-methyl-4-[1-methyl-3-(trifluoromethyl)-1,4,6,7-tetrahydro-5H-pyrazolo[4,3-c]pyridin-5-yl]imidazo[5,1-f][1,2,4]triazine] are 0.943 nM and 1.28 nM.
The corresponding values for `Cc1cc2c(cn1)CN(c1ncnn3c(C)nc([C@@H]4CCOC4)c13)CC2` [Example 163, 6-methyl-2-{7-methyl-5-[(3S)-tetrahydrofuran-3-yl]imidazo[5,1-f][1,2,4]triazin-4-yl}-1,2,3,4-tetrahydro-2,7-naphthyridine] are 1.19 nM and 1.78 nM.
The corresponding values for `Cc1nc(-c2ccccc2F)c2c(N3CCc4cnn(C)c4C3)ncnn12` [Example 2, 5-(2-Fluorophenyl)-7-methyl-4-(1-methyl-1,4,5,7-tetrahydro-6H-pyrazolo[3,4-c]pyridin-6-yl)imidazo[5,1-f][1,2,4]triazine] are 2.95 nM and 3.28 nM.
As for `Cc1nc([C@H]2CCOC2)c2c(N3CCc4c(c(C(C)C)nn4C)C3)ncnn12` [Example 85, 7-methyl-4-{1-methyl-3-(propan-2-yl)-1,4,6,7-tetrahydro-5H-pyrazolo[4,3-c]pyridin-5-yl]-5-[(3R)-tetrahydrofuran-3-yl]imidazo[5,1-f][1,2,4]triazine], the IC50 against rat PDE10 enzyme came to 0.556 nM; in test [1], 0.182 nM.
The corresponding values for `CCc1nn(C)c2c1CN(c1ncnn3c(C)nc([C@@H]4CCOC4)c13)CC2` [Example 18, 4-(3-ethyl-1-methyl-1,4,6,7-tetrahydro-5H-pyrazolo[4,3-c]pyridin-5-yl)-7-methyl-5-[(3S)-tetrahydrofuran-3-yl]imidazo[5,1-f][1,2,4]triazine] are 0.147 nM and 0.486 nM.
On the same counts, the results for `COc1cc2c(cn1)CN(c1ncnn3c(C)nc([C@@H]4CCOC4)c13)CC2` [Example 70, 6-methoxy-2-{7-methyl-5-[(3S)-tetrahydrofuran-3-yl]imidazo[5,1-f][1,2,4]triazin-4-yl}-1,2,3,4-tetrahydro-2,7-naphthyridine] are 1.52 nM and 1.95 nM.
As for `Cc1nc([C@@H]2CCOC2)c2c(N3CCc4ccc(C(F)(F)F)nc4C3)ncnn12` [Example 157, 7-{7-methyl-5-[(3S)-tetrahydrofuran-3-yl]imidazo[5,1-f][1,2,4]triazin-4-yl}-2-(trifluoromethyl)-5,6,7,8-tetrahydro-1,7-naphthyridine], the values for the IC50 (on rat PDE10 enzyme; in test [1]) were 0.196 nM and 0.295 nM, respectively.
For the compound `COc1ccc2c(c1)CCN(c1ncnn3c(C)nc([C@@H]4CCOC4)c13)C2` [Example 58, 6-methoxy-2-{7-methyl-5-[(3S)-tetrahydrofuran-3-yl]imidazo[5,1-f][1,2,4]triazin-4-yl}-1,2,3,4-tetrahydroisoquinoline], the values for the IC50 (against rat PDE10 enzyme; in test [1]) were less than 1.16 nM and 1.12 nM, respectively.
Consider `Cc1nc([C@@H]2CCOC2)c2c(N3CCc4cnn(CC(C)C)c4C3)ncnn12` [Example 169, 7-methyl-4-[1-(2-methylpropyl)-1,4,5,7-tetrahydro-6H-pyrazolo[3,4-c]pyridin-6-yl]-5-[(3S)-tetrahydrofuran-3-yl]imidazo[5,1-f][1,2,4]triazine], for which the IC50 on rat PDE10 enzyme worked out at 0.367 nM; in test [1] it was 0.755 nM.
For `Cc1nc(C2CCOCC2)c2c(N3CCc4c(c(C(C)C)nn4C)C3)ncnn12` [Example 21, 4-(3-isopropyl-1-methyl-1,4,6,7-tetrahydro-5H-pyrazolo[4,3-c]pyridin-5-yl)-7-methyl-5-(tetrahydro-2H-pyran-4-yl)imidazo[5,1-f][1,2,4]triazine], the IC50 on rat PDE10 enzyme stood at 0.51 nM; in test [1] it was 0.876 nM.
Take `Cc1nc(-c2ccccc2F)c2c(N3Cc4c(cnn4C)C(C)C3)ncnn12` (stereo not drawn) [Example 168]: the IC50 against rat PDE10 enzyme was 6.1 nM; in test [1], 3.96 nM.
As for `Cc1nc([C@H]2CCOC2)c2c(N3CCn4ncc(C(F)(F)F)c4C3)ncnn12` [Example 50, 7-methyl-5-[(3R)-tetrahydrofuran-3-yl]-4-[3-(trifluoromethyl)-6,7-dihydropyrazolo[1,5-a]pyrazin-5(4H)-yl]imidazo[5,1-f][1,2,4]triazine], the results for the IC50 (on rat PDE10 enzyme; in test [1]) were 2.25 nM and 3.27 nM, respectively.
The corresponding values for `Cc1ccc2c(n1)CCN(c1ncnn3c(C)nc([C@@H]4CCOC4)c13)C2` [Example 139, 2-methyl-6-{7-methyl-5-[(3S)-tetrahydrofuran-3-yl]imidazo[5,1-f][1,2,4]triazin-4-yl}-5,6,7,8-tetrahydro-1,6-naphthyridine] are 0.27 nM and 0.279 nM.
The corresponding values for `Cc1nc([C@@H]2CCOC2)c2c(N3CCc4cnn(C(C)C)c4C3)ncnn12` [Example 91] are 0.793 nM and 0.61 nM.
The corresponding values for `Cc1nc([C@@H]2CCOC2)c2c(N3CCc4ccc(C5CC5)nc4C3)ncnn12` [Example 74, 2-cyclopropyl-7-{7-methyl-5-[(3S)-tetrahydrofuran-3-yl]imidazo[5,1-f][1,2,4]triazin-4-yl}-5,6,7,8-tetrahydro-1,7-naphthyridine] are 0.0896 nM and 0.211 nM.
`CCn1ncc2c1CN(c1ncnn3c(C)nc([C@@H]4CCOC4)c13)CC2` [Example 165, 4-(1-ethyl-1,4,5,7-tetrahydro-6H-pyrazolo[3,4-c]pyridin-6-yl)-7-methyl-5-[(3S)-tetrahydrofuran-3-yl]imidazo[5,1-f][1,2,4]triazine]: the IC50 against rat PDE10 enzyme came out at 0.766 nM; in test [1] it was 1.02 nM.
In the case of `COc1cc2c(cn1)CN(c1ncnn3c(C)nc(-c4ccccc4F)c13)CC2` [Example 71, 2-[5-(2-fluorophenyl)-7-methylimidazo[5,1-f][1,2,4]triazin-4-yl]-6-methoxy-1,2,3,4-tetrahydro-2,7-naphthyridine], the IC50 at rat PDE10 enzyme turned out to be 3.41 nM; in test [1] it was 5.77 nM.
